IC50 data for 21 molecules are collected here from US20240254129A1, “HETEROCYCLIC COMPOUNDS AND USES THEREOF” (Kumquat Biosciences Inc., priority 2021, published 2024).

The target of assay [1] is GST-tagged K-Ras mutant / His-tagged hSOS1 (Homo sapiens, UniProt P01116). Put plainly: HTRF assay, K-Ras mutant / SOS1 interaction. The assay is classed as binding. The settings on record: read-out: IC50 against mutant Kras. In short, it runs like this:
(§1)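 Compounds tested in duplicate from 10 μM down to 0.01 μM, incubated about 10 min or longer with GST-K-Ras/anti-GST-Eu and His-hSOS1/anti-6His-XL665 in ~5 mM HEPES pH 7.4 buffer with ~150 mM NaCl, DTT, BSA and Igepal. IC50 derived from 665/620 nm emission ratio.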
On the technique in general: Time-resolved FRET reads energy transfer from a long-lived donor to a nearby acceptor.

A further assay has as its target T1, wildtype Kras / hSOS1 (Homo sapiens, UniProt P01116).
T1 construct: made in house; host or cells: E. coli BL21 (DE3)
Put plainly: HTRF assay, wildtype Kras / SOS1 interaction. The assay is classed as binding. The settings on record: read-out: IC50 against wildtype Kras. In short, it runs like this: as §1

The mark [2] stands for this setting: compound nos. 102-196, general methodology of example 5.

Where two headings read alike, the source gives them in different places.

T1 sequence (P01116 1-188 isoform P01116-2): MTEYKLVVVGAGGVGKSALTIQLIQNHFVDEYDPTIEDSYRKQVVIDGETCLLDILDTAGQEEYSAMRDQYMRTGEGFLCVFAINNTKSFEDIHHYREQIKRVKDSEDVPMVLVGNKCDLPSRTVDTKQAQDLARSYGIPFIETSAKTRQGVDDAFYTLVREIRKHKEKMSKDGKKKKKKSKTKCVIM
GST-tagged K-Ras mutant / His-tagged hSOS1, sequence (P01116 whole entry G12D, form open): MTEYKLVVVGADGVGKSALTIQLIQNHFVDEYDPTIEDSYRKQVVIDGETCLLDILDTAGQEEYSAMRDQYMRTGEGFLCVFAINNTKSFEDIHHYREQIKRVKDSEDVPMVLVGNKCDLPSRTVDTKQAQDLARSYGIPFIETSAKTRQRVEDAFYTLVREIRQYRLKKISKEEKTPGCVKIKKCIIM

With `Nc1nc2c(-c3c(Cl)cc4c(N5CCCOCC5)nc(OCC56CCCN5CCC6)nc4c3F)ccc(F)c2s1` [Compound 148, 4-(6-chloro-8-fluoro-4-(1,4-oxazepan-4-yl)-2-((tetra-hydro-1H-pyrrolizin-7a(5H)-yl)methoxy)quinazolin-7-yl)-7-fluorobenzo[d]thiazol-2-amine], the IC50 (in assay [1] (setting [2]); on wildtype Kras / hSOS1 (setting [2])) was less than 500 nM throughout.

Take `Nc1cc(-c2c(Cl)cc3c(N4CC5CCC(C4)N5)nc(OCC45CCCN4CCC5)nc3c2F)ccc1F` [Compound 627, 5-(4-(3,8-diazabicyclo-[3.2.1]octan-3-yl)-6-chloro-8-fluoro-2-((tetrahydro-1H-pyrrolizin-7a(5H)-yl)meth-oxy)quinazolin-7-yl)-2-fluoroaniline]: the IC50 (in assay [1] (compound nos. 401-703); on wildtype Kras / hSOS1 (compound nos. 401-703)) was more than 500 nM in each case.

`Fc1c(-c2cccc3ccsc23)c(Cl)cc2c(N3CC4CCC(C3)N4)nc(OC[C@@]34CCCN3C[C@H](F)C4)nc12` [Compound 560, 7-(benzo[b]thiophen-7-yl)-4-(3,8-diazabicyclo[3.2.1]-octan-3-yl)-6-chloro-8-fluoro-2-(((2R,7aS)-2-fluorotetrahydro-1H-pyrrol-izin-7a(5H)-yl)methoxy)-quinazoline]: the IC50 (in assay [1] (compound nos. 401-703); at wildtype Kras / hSOS1 (compound nos. 401-703)) was more than 500 nM each time.

Regarding `Nc1nc2c(-c3c(Cl)cc4c(N5C[C@H]6CCNCC[C@H]6C5)nc(OC[C@@]56CCCN5C[C@H](F)C6)nc4c3F)ccc(F)c2s1` [Compound 528, 4-(6-chloro-8-fluoro-2-(((2R,7aS)-2-fluorotetra-hydro-1H-pyrrolizin-7a(5H)-yl)methoxy)-4-((3aR,8aS)-octahydropyr-rolo[3,4-d]azepin-2(1H)-yl)quinazolin-7-yl)-7-fluorobenzo[d]thiazol-2-amine], the IC50 (in general, the concentration that inhibits the measured activity by half) in assay [1] (compound nos. 401-703) is less than 500 nM; on wildtype Kras / hSOS1 (compound nos. 401-703), more than 500 nM.

As to `N#Cc1c(N)sc2c(F)ccc(-c3c(Cl)cc4c(N5CCCS(=O)(=O)CC5)nc(OC[C@@]56CCCN5C[C@H](F)C6)nc4c3F)c12` [Compound 574, 2-amino-4-(6-chloro-4-(1,1-dioxido-1,4-thiazepan-4-yl)-8-fluoro-2-(((2R,7aS)-2-fluorotetrahydro-1H-pyrrol-izin-7a(5H)-yl)methoxy)-quinazolin-7-yl)-7-fluoro-benzo[b]thiophene-3-carbonitrile], the IC50 was less than 500 nM in assay [1] (compound nos. 401-703) and more than 500 nM on wildtype Kras / hSOS1 (compound nos. 401-703).

Turning to `CN1CCC[C@H]1COc1nc(N2CCN(S(C)(=O)=O)CC(F)(F)C2)c2cc(Cl)c(-c3cccc4sc(N)nc34)c(F)c2n1` [Compound 140, 4-(6-chloro-4-(6,6-difluoro-4-(methylsulfonyl)-1,4-diazepan-1-yl)-8-fluoro-2-(((S)-1-methylpyrrolidin-2-yl)methoxy)quinazolin-7-yl)-benzo[d]thiazol-2-amine], the IC50 in assay [1] (setting [2]) is more than 500 nM; on wildtype Kras / hSOS1 (setting [2]) it was less than 500 nM.

As for `Nc1nc2c(-c3c(Cl)cc4c(N5CCNCC(F)(F)C5)nc(OCCCN5CCOCC5)nc4c3F)cccc2s1` [Compound 129, 4-(6-chloro-4-(6,6-difluoro-1,4-diazepan-1-yl)-8-fluoro-2-(3-morpholinopropoxy)-quinazolin-7-yl)benzo[d]-thiazol-2-amine], the results for the IC50 (in assay [1] (setting [2]); at wildtype Kras / hSOS1 (setting [2])) were more than 500 nM and less than 500 nM, respectively.

For `CN1CCC[C@H]1COc1nc(N2CCNCC(F)(F)C2)c2cc(Cl)c(-c3cccc4sc(NCC(F)(F)F)nc34)c(F)c2n1` [Compound 149, 4-(6-chloro-4-(6,6-difluoro-1,4-diazepan-1-yl)-8-fluoro-2-(((S)-1-methylpyrrolidin-2-yl)methoxy)quinazolin-7-yl)-N-(2,2,2-trifluoroethyl)-benzo[d]thiazol-2-amine], the IC50 (in assay [1] (setting [2]); at wildtype Kras / hSOS1 (setting [2])) was more than 500 nM throughout.

As for `CN1CCC[C@H]1COc1nc(N2CCCOCC2)c2cc(Cl)c(-c3ccc(F)c4sc(N)nc34)c(F)c2n1` [Compound 147, 4-(6-chloro-8-fluoro-2-(((S)-1-methylpyrrolidin-2-yl)-methoxy)-4-(1,4-oxazepan-4-yl)quinazolin-7-yl)-7-fluorobenzo[d]thiazol-2-amine], the IC50 (in assay [1] (setting [2]); on wildtype Kras / hSOS1 (setting [2])) was less than 500 nM in each case.

On to `N#Cc1ccc2ccccc2c1-c1c(Cl)cc2c(N3CC4CCC(C3)N4)nc(OC[C@@]34CCCN3C[C@H](F)C4)nc2c1F` [Compound 558, 1-(4-(3,8-diazabicyclo-[3.2.1]octan-3-yl)-6-chloro-8-fluoro-2-(((2R,7aS)-2-fluorotetrahydro-1H-pyrrol-izin-7a(5H)-yl)methoxy)-quinazolin-7-yl)-2-naph-thonitrile], for which the IC50 (in assay [1] (compound nos. 401-703); on wildtype Kras / hSOS1 (compound nos. 401-703)) was more than 500 nM in each case.

For the molecule `Nc1cccc(-c2ccccc2-c2c(Cl)cc3c(N4CCCCCC4)nc(OCC45CCCN4CCC5)nc3c2F)c1` [Compound 666, 2′-(4-(azepan-1-yl)-6-chloro-8-fluoro-2-((tetrahydro-1H-pyrrolizin-7a(5H)-yl)meth-oxy)quinazolin-7-yl)-[1,1′-biphenyl]-3-amine], the IC50 (in assay [1] (compound nos. 401-703); at wildtype Kras / hSOS1 (compound nos. 401-703)) was more than 500 nM throughout.

On to `Nc1nc2c(-c3c(Cl)cc4c(N5CCCCC(F)(F)C5)nc(OC[C@@]56CCCN5C[C@H](F)C6)nc4c3F)ccc(F)c2s1` [Compound 168, 4-(6-chloro-4-(3,3-difluoro-azepan-1-yl)-8-fluoro-2-(((2R,7aS)-2-fluorotetra-hydro-1H-pyrrolizin-7a(5H)-yl)methoxy)quinazolin-7-yl)-7-fluorobenzo[d]thiazol-2-amine], for which the IC50 (in assay [1] (setting [2]); at wildtype Kras / hSOS1 (setting [2])) was less than 500 nM throughout.

In the case of `Oc1cc(-c2ncc3c(N4C[C@H]5CC[C@@H](C4)N5)nc(OC[C@@]45CCCN4C[C@H](F)C5)nc3n2)c2ccccc2c1` [Compound 418, 4-(5-((1R,5S)-3,8-diazabicyclo[3.2.1]octan-3-yl)-7-(((2R,7aS)-2-fluorotetrahydro-1H-pyrrolizin-7a(5H)-yl)methoxy)pyrimido[4,5-d]pyrimidin-2-yl)naphthalen-2-ol], the IC50 in assay [1] (compound nos. 401-703) was more than 500 nM; on wildtype Kras / hSOS1 (compound nos. 401-703), less than 500 nM.

Regarding `Nc1nc2c(-c3c(Cl)cc4c(N5CCCCC(F)(F)C5)nc(OCC56CCCN5CCC6)nc4c3F)ccc(F)c2s1` [Compound 117, 4-(6-chloro-4-(3,3-difluoro-azepan-1-yl)-8-fluoro-2-((tetrahydro-1H-pyrrolizin-7a(5H)-yl)methoxy)quin-azolin-7-yl)-7-fluorobenzo-[d]thiazol-2-amine], the IC50 (in assay [1] (setting [2]); on wildtype Kras / hSOS1 (setting [2])) was less than 500 nM in each case.

For the molecule `CN(CCC1CCC[N+]1(C)C)c1nc(N2CC3CCC(C2)N3)c2ccc(-c3ccc(F)c4sc(N)nc34)nc2n1` (stereo not drawn) [Compound 647, 4-(4-(3,8-diazabicyclo-[3.2.1]octan-3-yl)-2-((2-(1,1-dimethyl-114-pyrrol-idin-2-yl)ethyl)(methyl)-amino)pyrido[2,3-d]pyr-imidin-7-yl)-7-fluoroben-zo[d]thiazol-2-amine], the IC50 (in assay [1] (compound nos. 401-703); at wildtype Kras / hSOS1 (compound nos. 401-703)) was more than 500 nM in each case.

In the case of `Nc1nc2c(-c3c(Cl)cc4c(N5CCOCC(F)(F)C5)nc(OCC56CCCN5CCC6)nc4c3F)ccc(F)c2s1` [Compound 115, 4-(6-chloro-4-(6,6-difluoro-1,4-oxazepan-4-yl)-8-fluoro-2-((tetrahydro-1H-pyrrol-izin-7a(5H)-yl)methoxy)-quinazolin-7-yl)-7-fluoro-benzo[d]thiazol-2-amine], the IC50 (in assay [1] (setting [2]); at wildtype Kras / hSOS1 (setting [2])) was less than 500 nM each time.

Consider `Nc1nc2c(-c3c(Cl)cc4c(N5CCCCC(F)(F)C5)nc(OCC56CCCN5CCC6)nc4c3F)cccc2s1` [Compound 116, 4-(6-chloro-4-(3,3-difluoro-azepan-1-yl)-8-fluoro-2-((tetrahydro-1H-pyrrolizin-7a(5H)-yl)methoxy)quin-azolin-7-yl)benzo[d]thiazol-2-amine], for which the IC50 (in assay [1] (setting [2]); on wildtype Kras / hSOS1 (setting [2])) was less than 500 nM each time.

Take `CN1CCC[C@H]1COc1nc(N2CCCCC(C(N)=O)C2)c2cc(Cl)c(-c3cccc4sc(N)nc34)c(F)c2n1` (stereo partly drawn) [Compound 700, 1-(7-(2-aminobenzo[d]-thiazol-4-yl)-6-chloro-8-fluoro-2-(((S)-1-methyl-pyrrolidin-2-yl)methoxy)-quinazolin-4-yl)azepane-3-carboxamide]: the IC50 in assay [1] (compound nos. 401-703) is less than 500 nM; on wildtype Kras / hSOS1 (compound nos. 401-703), more than 500 nM.

Turning to `CN(C)CC1CN(c2nc(OCC34CCCN3CCC4)nc3c(F)c(-c4ccc(F)c5sc(N)nc45)c(Cl)cc23)CCCO1` (stereo not drawn) [Compound 681, 4-(6-chloro-4-(2-((dimethyl-amino)methyl)-1,4-oxaze-pan-4-yl)-8-fluoro-2-((tetra-hydro-1H-pyrrolizin-7a(5H)-yl)methoxy)quinazolin-7-yl)-7-fluorobenzo[d]thiazol-2-amine], the values for the half-inhibitory concentration (IC50) (in assay [1] (compound nos. 401-703); at wildtype Kras / hSOS1 (compound nos. 401-703)) were less than 500 nM and more than 500 nM, respectively.

In the case of `N#Cc1c(N)sc2c(F)ccc(-c3c(Cl)cc4c(N5CCNCC(F)(F)C5)nc(OC[C@@]56CCCN5C[C@H](F)C6)nc4c3F)c12` [Compound 405, 2-amino-4-(6-chloro-4-(6,6-difluoro-1,4-diazepan-1-yl)-8-fluoro-2-(((2R,7aS)-2-fluorotetrahydro-1H-pyr-rolizin-7a(5H)-yl)methoxy)-quinazolin-7-yl)-7-fluoro-benzo[b]thiophene-3-carbonitrile], the results for the IC50 (in assay [1] (compound nos. 401-703); at wildtype Kras / hSOS1 (compound nos. 401-703)) were more than 500 nM and less than 500 nM, respectively.

`CN1CCC[C@H]1COc1nc(N2CCNC3COCC32)c2cc(Cl)c(-c3cccc4sc(N)nc34)c(F)c2n1` (stereo partly drawn) [Compound 107, 4-(6-chloro-8-fluoro-4-(hexahydrofuro[3,4-b]pyr-azin-1(2H)-yl)-2-(((S)-1-methylpyrrolidin-2-yl)meth-oxy)quinazolin-7-yl)benzo-[d]thiazol-2-amine]: the IC50 (in assay [1] (setting [2]); at wildtype Kras / hSOS1 (setting [2])) was more than 500 nM in each case.
